Measurements taken from the NIST ThermoML archive (doi:10.1021/je100353j).
“And” between values parts separate entries of the source, which are not always exact repeats. Identical values can stand only once. ± gives the expanded uncertainty stated by the source.

Legend:
[1] = Liquid
[2] = xn = mol fraction of the nth substance listed; settings: Liquid, x2 = 0

C1CCCCC1 [cyclohexane]
mass density [kg/m3], [1]
Settings | 101.33 kPa | 5000 kPa | 10000 kPa | 20000 kPa | 30000 kPa | 40000 kPa
293.15 K | 778.8 ± 0.5 | 782.8 ± 0.7 | 786.6 ± 0.8 | 793.9 ± 1.1 | 801 ± 1.4 | 807.8 ± 1.7
298.15 K | 773.9 ± 0.6 | 778.3 ± 0.7 | 782.3 ± 0.9 | 789.8 ± 1.1 | 796.7 ± 1.4 | 802.9 ± 1.7
303.15 K | 769.3 ± 0.6 | 773.6 ± 0.7 | 777.8 ± 0.9 | 785.7 ± 1.2 | 792.8 ± 1.4 | 799.2 ± 1.7
308.15 K | 764.5 ± 0.6 | 769 ± 0.7 | 773.4 ± 0.9 | 781.5 ± 1.2 | 788.8 ± 1.5 | 795.5 ± 1.7
313.15 K | 759.7 ± 0.6 | 764.5 ± 0.7 | 768.9 ± 0.9 | 777.4 ± 1.2 | 784.8 ± 1.5 | 791.8 ± 1.8

COC(=O)OC [dimethyl carbonate]
mass density, [1]
Settings | 101.33 kPa | 5000 kPa | 10000 kPa | 20000 kPa | 30000 kPa | 40000 kPa
293.15 K | 1069.8 ± 0.4 kg/m3 | 1074.4 ± 0.5 kg/m3 | 1078.6 ± 0.5 kg/m3 | 1086.9 ± 0.6 kg/m3 | 1094.5 ± 0.8 kg/m3 | 1101.9 ± 1 kg/m3
298.15 K | 1063.2 ± 0.4 kg/m3 | 1068 ± 0.5 kg/m3 | 1072.4 ± 0.5 kg/m3 | 1080.8 ± 0.6 kg/m3 | 1088.7 ± 0.8 kg/m3 | 1096.2 ± 1 kg/m3
303.15 K | 1056.5 ± 0.4 kg/m3 | 1061.3 ± 0.5 kg/m3 | 1066 ± 0.5 kg/m3 and 1065 ± 0.5 kg/m3 | 1074.7 ± 0.6 kg/m3 | 1082.9 ± 0.7 kg/m3 | 1090.4 ± 0.9 kg/m3
308.15 K | 1049.8 ± 0.4 kg/m3 | 1054.6 ± 0.4 kg/m3 | 1059.4 ± 0.5 kg/m3 | 1068.5 ± 0.6 kg/m3 | 1077 ± 0.7 kg/m3 | 1084.8 ± 0.9 kg/m3
313.15 K | 1043 ± 0.4 kg/m3 | 1048.1 ± 0.4 kg/m3 | 1053 ± 0.5 kg/m3 | 1062.3 ± 0.5 kg/m3 | 1071 ± 0.7 kg/m3 | 1079 ± 0.8 kg/m3

C1CCCCC1 [cyclohexane] + COC(=O)OC
mass density [kg/m3], [2]
Settings | 100 kPa | 5000 kPa | 10000 kPa | 20000 kPa | 30000 kPa | 40000 kPa
293.15 K | 778.8 ± 0.5 | 782.8 ± 0.7 | 786.6 ± 0.8 | 793.9 ± 1.1 | 801 ± 1.4 | 807.8 ± 1.7
298.15 K | 773.9 ± 0.6 | 778.3 ± 0.7 | 782.3 ± 0.9 | 789.8 ± 1.1 | 796.7 ± 1.4 | 802.9 ± 1.7
303.15 K | 769.3 ± 0.6 | 773.6 ± 0.7 | 777.8 ± 0.9 | 785.7 ± 1.2 | 792.8 ± 1.4 | 799.2 ± 1.7
308.15 K | 764.5 ± 0.6 | 769 ± 0.7 | 773.4 ± 0.9 | 781.5 ± 1.2 | 788.8 ± 1.5 | 795.5 ± 1.7
313.15 K | 759.7 ± 0.6 | 764.5 ± 0.7 | 768.9 ± 0.9 | 777.4 ± 1.2 | 784.8 ± 1.5 | 791.8 ± 1.8
